Patent US12479823B2, “Compound for use in retinal diseases” (ZHUHAI UNITED LABORATORIES CO., LTD., priority 2018, dated 2025)
Where two headings read alike, the source gives them in different places.

Key:
[1] = In vitro aldehyde capture capacity test (complexing with nonanal, HPLC at 254 nm)
Procedure: Objective: dry eye disease is caused by inflammation in eyes, wherein the inflammation may produce aldehydes that will accelerate the inflammation symptoms and worsen the dry eye disease if not eliminated in time. In the experiment, a better compound was selected according to the complexing capacity of the drug and aldehydes in vivo by simulating the in vivo environment.
Procedures: Sulfobutyl-B-cyclodextrin (310 mg) was dissolved in a phosphate buffer (1.25 mL) to prepare a solution.
Nonanal (5.0 mg, 32 μmol, 1.0 eq) and triolein (300 mg) were added to a reaction flask at room temperature, after addition of the prepared solution described above, linoleic acid (300 mg) was added, and finally a dimethyl sulfoxide (0.15 ml) solution containing the compound (32 μmol, 1.0 eq) of the present disclosure was added; the reaction solution was reacted at 20-23° C.
The reaction solution was reacted under stirring for 10 min, 100 min, 200 min, and 300 min respectively, and sampled for high performance liquid chromatography after the solution was stratified after standing for 2 min.
Sampling method: 25 μl of an upper emulsified layer and 50 μl of a lower aqueous phase were sampled by a pipette, and samples were diluted with 1 mL of methanol.
The ultraviolet absorption of the nonanal was weak at 254 nm, so the nonanal had little overall effect on the content of complexed products. Therefore, the percentage contents of complexes at 254 nm under high performance liquid chromatography were compared to observe aldehyde capture and complexing capacities, as shown in FIG. 1 and Table 1:
Taking The compound 7 as an example, after 300 min of reaction, the analytical method for HPLC was XBRIGE 2.5 μm, 3.0*100 mm 5-80CD_XBEH_12 min_0.8.1 cm;
Retention time 6.689 min, 6.787 min, 6.966 min, and 7.102 min were absorption peaks of products complexed with monomolecular aldehyde;
Retention time 8.905 min, 9.010 min, and 9.075 min were absorption peaks of products complexed with bimolecular aldehyde.

CYP2C9 = target: T1, CYP2C9 (Homo sapiens, UniProt P11712); test: Inhibition of human liver microsomal cytochrome P450 CYP2C9; format: in vitro ADME; details: human liver microsomes, probe substrate, NADPH
T1 construct: fused human liver microsomes were selected as a CYP450 enzyme source; from tissue; host or cells: pooled ("fused") human liver microsomes
T1 sequence (P11712 whole entry, the tested form may be a part): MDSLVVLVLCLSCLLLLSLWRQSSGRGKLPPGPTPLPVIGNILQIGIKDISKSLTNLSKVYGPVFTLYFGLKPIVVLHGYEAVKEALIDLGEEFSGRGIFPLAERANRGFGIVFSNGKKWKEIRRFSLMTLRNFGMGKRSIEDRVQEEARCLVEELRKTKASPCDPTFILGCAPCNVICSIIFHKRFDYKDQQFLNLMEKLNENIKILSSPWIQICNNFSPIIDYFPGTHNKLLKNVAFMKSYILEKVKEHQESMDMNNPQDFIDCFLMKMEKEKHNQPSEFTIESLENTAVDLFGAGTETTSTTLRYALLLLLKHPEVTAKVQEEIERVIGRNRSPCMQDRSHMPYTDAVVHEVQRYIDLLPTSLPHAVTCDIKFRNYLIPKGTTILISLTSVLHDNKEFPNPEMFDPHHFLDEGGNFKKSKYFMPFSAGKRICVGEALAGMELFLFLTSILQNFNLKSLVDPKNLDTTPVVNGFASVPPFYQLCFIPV
Description: Objective: To study the inhibitory effect of compounds on human liver microsomal cytochrome P450. Experimental procedures: In the study on inhibition of the compounds on the human liver microsomal cytochrome P450 (CYP1A2, CYP2C9, CYP2C19, CYP2D6 and CYP3A4), fused human liver microsomes were selected as a CYP450 enzyme source. […]

[2] = Corneal and plasma drug concentration after eye drops in rats; format: in vivo
Procedure: Objective: To Study the Ratio of Corneal to Plasma Drug Concentration After Eye Drops in Rats
Experimental Materials: Male SD Rats, 200-300 g, 7-9 weeks old, Shanghai Lingchang
Experimental procedures: The candidate compound was prepared as a clear solution, and administered to SD rats by eye drops. The vehicle for eye drops was 10% hydroxypropyl β-cyclodextrin aqueous solution, and the drug concentration in the eye drops was 5 mg/mL. Corneal and whole blood samples were collected at 1 and 4 hours, respectively. The corneal samples was homogenized in 15 mM phosphate buffer (PBS): MeoH (2:1, v: v) buffer, the whole blood samples were centrifuged at 3000 r for 10 min, and the supernatant plasma samples were separated. 20 μL of the plasma samples and homogenate samples were mixed with 400 μL of acetonitrile precipitated proteins containing an internal standard, respectively, and 2 μL of the supernatant was injected by centrifugation. The plasma concentrations were quantified by LC-MS/MS analysis; the drug concentrations in the cornea and plasma were measured respectively according to different time points, and the ratio of corneal/plasma concentrations was calculated.

IC50 (CYP2C9): > 50 µM
entry into the cornea by eye drops ([2]; SD rats, eye drops, result in words): could enter the cornea by eye drops
concentration at 1 h ([2]; male, Sprague-Dawley (SD), rat, cornea, topical, eye drops 5 mg/mL, 1 h, read-out: Corneal Concentration): 1800 nM
concentration at 4 h ([2]; male, Sprague-Dawley (SD), rat, cornea, topical, eye drops 5 mg/mL, 4 h, read-out: Corneal Concentration): 581 nM
Kp ([2]; male, Sprague-Dawley (SD), rat, cornea/plasma, topical, 5 mg/mL, eye drops, statement in the conclusion, no time point, read-out: ratio of cornea/plasma concentrations): > 10
Kp at 1 h ([2]; male, Sprague-Dawley (SD), rat, cornea/plasma, topical, eye drops 5 mg/mL, 1 h, read-out: Corneal Concentration/Plasma Concentration C/P ratio): 14.3
Kp at 4 h ([2]; male, Sprague-Dawley (SD), rat, cornea/plasma, topical, eye drops 5 mg/mL, 4 h, read-out: Corneal Concentration/Plasma Concentration C/P ratio): 16.6
concentration at 1 h ([2]; male, Sprague-Dawley (SD), rat, plasma, topical, eye drops 5 mg/mL, 1 h, read-out: Plasma Concentration): 162 nM
concentration at 4 h ([2]; male, Sprague-Dawley (SD), rat, plasma, topical, eye drops 5 mg/mL, 4 h, read-out: Plasma Concentration): 43.8 nM
SMILES: CC(C)(O)c1ccc(-c2cnc(C(C)(C)O)c(N)c2)cc1N [Compound 3]
percentage content of complexed products at 254 nm ([1]; Time 10 min): 3.265%
percentage content of complexed products at 254 nm ([1]; Time 100 min): 10.569%
percentage content of complexed products at 254 nm ([1]; Time 200 min): 17.191%
percentage content of complexed products at 254 nm ([1]; Time 300 min): 22.182%
Area under the curve AUC ([1]; nonanal 1.0 eq, compound 1.0 eq, 20-23° C., 10-300 min, HPLC 254 nm): 3979 min. Conversion
Slope (linear equation of percentage content of complexed products vs time) ([1]; nonanal 1.0 eq, compound 1.0 eq, 20-23° C., 10-300 min, HPLC 254 nm, in %/min): 0.0652
